Reference: patent US7560453B2, “6-(2, 3, 4, 5-tetrahydro-1H-benzo [D] azepin-7-yloxy) -nicotamide derivatives as radio labelled ligands” (Glaxo Group Limited, priority 2005, dated 2009)

Key:
histamine H3 receptors = settings: prior art radioligands; cited from earlier work
histamine H3 receptor [1] = experiment: PET imaging with pharmacological challenges (blocking of Compound A uptake); assay type: in vivo, pig
Protocol: Four sequential high specific activity iv radioligand Compound A administrations were performed in same animal, same day. Following a baseline scan, Compound A was co-administered with escalating dose of unlabelled unlabelled compound A (0.005, 0.05 and 0.5 mg/kg). [^15O]CO and [^15O]H2O were administered pre and post administration of unlabelled compound A to monitor and to correct for changes in cerebral blood volume and changes in cerebral blood flow. […] A similar experiment was performed using escalating dose of ciproxifan (0.006, 0.06, 0.6 and 2.0 mg/kg), a known selective histamine H3 antagonist.

Human receptor H4 = Human receptor H4 (Homo sapiens, UniProt Q9H3N8); experiment: Binding affinity, human H4 receptor; settings: read-out: Binding affinity (pKi), human H4 (converted)
Human receptor H2 = Human receptor H2 (Homo sapiens, UniProt P25021); experiment: Binding affinity, human H2 receptor; settings: read-out: Binding affinity (pKi), human H2 (converted)
Human receptor H1 = Human receptor H1 (Homo sapiens, UniProt P35367); experiment: Binding affinity, human H1 receptor; settings: read-out: Binding affinity (pKi), human H1 (converted)
[2] = biological target: T1, human histamine H3 receptor (Homo sapiens, UniProt Q9Y5N1); experiment: Competition binding assay using [125I]iodoproxifan, cell lines stably expressing human histamine H3 receptor
T1 construct: expressed in transfected cells
Protocol: The in vitro affinity of unlabelled Compound A for the histamine H3 receptor was determined by competition assay using [^125I]iodoproxifan as radioligand binding to cell lines stably expressing human histamine H3 receptor.^13

histamine H3 receptor [3] = experiment: PET imaging with Compound A in pig brain; assay type: in vivo
Protocol: The animals (pig, Yorkshire/Danish Landrace (˜40 Kg; n=2) were housed singly in thermostatically controlled (20° C.) and naturally illuminated stalls. They were scanned under terminal anaesthesia (ketamine induced isoflurane anaesthesia) on different days. The left femoral artery and vein of each animal were surgically cannulated using catheters (Avanti® size 4F-7F). Blood samples were collected from the femoral artery and the radiolabelled and non-labelled agents were injected to the femoral vein. Animals were placed supine in a Siemens ECAT EXACT HR tomograph, with the head immobilized in a custom-made holding device. During the study, blood pH, pCO2 and pO2 levels were monitored and maintained within the normal physiological range. In addition, BP and heart rate were recorded throughout the study. Compound A was administered intravenously in the femoral vein as a 1 minute bolus injection. PET scanning and arterial blood sampling was commenced upon start of the radioligand administration.

[4] = 2.0 mg/kg ciproxifan, 85 min post-injection

T1 sequence (Q9Y5N1 whole entry): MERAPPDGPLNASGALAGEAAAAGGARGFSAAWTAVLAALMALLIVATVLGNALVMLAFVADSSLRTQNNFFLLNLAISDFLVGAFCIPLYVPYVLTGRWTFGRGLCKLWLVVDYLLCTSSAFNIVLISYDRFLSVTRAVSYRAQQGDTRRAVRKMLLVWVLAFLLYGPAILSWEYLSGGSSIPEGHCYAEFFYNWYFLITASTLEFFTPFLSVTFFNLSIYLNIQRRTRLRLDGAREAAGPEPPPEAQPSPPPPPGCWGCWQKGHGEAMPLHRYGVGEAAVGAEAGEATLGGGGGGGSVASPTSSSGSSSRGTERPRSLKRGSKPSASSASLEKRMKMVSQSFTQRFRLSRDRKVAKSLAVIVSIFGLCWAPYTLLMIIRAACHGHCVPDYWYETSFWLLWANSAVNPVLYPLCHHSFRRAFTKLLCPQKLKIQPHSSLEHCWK
Human receptor H4, sequence (Q9H3N8 whole entry): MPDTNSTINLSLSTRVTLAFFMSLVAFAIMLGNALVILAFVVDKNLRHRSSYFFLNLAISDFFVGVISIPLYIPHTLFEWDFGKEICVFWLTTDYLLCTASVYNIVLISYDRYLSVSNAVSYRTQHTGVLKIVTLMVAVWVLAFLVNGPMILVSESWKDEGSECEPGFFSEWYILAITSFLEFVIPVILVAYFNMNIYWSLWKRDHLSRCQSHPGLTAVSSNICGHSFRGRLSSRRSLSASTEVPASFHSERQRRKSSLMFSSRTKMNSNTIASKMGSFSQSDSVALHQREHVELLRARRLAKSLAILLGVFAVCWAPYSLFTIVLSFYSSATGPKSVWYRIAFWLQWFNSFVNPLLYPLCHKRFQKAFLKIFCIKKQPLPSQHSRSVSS
Human receptor H2, sequence (P25021 whole entry): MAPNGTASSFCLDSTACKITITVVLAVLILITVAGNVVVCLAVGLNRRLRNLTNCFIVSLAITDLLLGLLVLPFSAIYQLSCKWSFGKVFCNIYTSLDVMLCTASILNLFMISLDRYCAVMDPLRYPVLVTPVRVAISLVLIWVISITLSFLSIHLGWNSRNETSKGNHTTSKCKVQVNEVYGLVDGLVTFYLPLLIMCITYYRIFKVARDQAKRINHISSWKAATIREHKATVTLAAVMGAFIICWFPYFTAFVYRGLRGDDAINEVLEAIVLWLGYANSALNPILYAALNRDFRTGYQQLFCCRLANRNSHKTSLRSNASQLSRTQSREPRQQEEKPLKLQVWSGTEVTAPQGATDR
Human receptor H1, sequence (P35367 whole entry): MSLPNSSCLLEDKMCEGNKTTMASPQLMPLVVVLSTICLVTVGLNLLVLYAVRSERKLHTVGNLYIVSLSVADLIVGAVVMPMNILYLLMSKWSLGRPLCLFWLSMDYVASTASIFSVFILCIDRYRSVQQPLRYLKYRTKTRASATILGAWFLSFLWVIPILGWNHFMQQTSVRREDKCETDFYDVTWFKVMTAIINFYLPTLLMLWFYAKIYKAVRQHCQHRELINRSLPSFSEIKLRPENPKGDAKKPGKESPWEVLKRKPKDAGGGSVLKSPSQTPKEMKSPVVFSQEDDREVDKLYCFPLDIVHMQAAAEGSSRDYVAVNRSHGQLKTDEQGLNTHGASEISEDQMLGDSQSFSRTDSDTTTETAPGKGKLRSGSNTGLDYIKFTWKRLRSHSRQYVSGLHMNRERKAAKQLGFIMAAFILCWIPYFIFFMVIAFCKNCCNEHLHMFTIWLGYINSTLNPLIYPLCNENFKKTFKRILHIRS

## [123I]c1ccc(COCCCc2cnc[nH]2)cc1 [[^123I]iodoproxifan]
Histamine H3 receptors
  Alteration of brain distribution by selective H3 receptor ligand: no significant alteration of the brain distribution by selective H3 receptor ligand

## CNC(=O)c1ccc(Oc2ccc3c(c2)CCN(C2CCC2)CC3)nc1 [unlabelled Compound A]
Histamine H3 receptor [1]; co-administered at 0.005, 0.05 and 0.5 mg/kg
  Effect on specific uptake of radiotracer Compound A: specific uptake of radiotracer was blocked
Human receptor H4
  Ki: > 3.16 µM
Human receptor H2
  Ki: > 3.16 µM
Human receptor H1
  Ki: 2510 nM
[2]; H3 versus other receptors
  Selectivity over other receptors: high selective over other receptors
[2]; [125I]iodoproxifan as radioligand, read-out: Binding affinity (pKi), human H3 (converted)
  Ki: 0.257 nM

## O=C(c1ccc(OCCCc2cnc[nH]2)cc1)C1CC1 [ciproxifan]
Histamine H3 receptor [1]; [4]
  Ratio tissue to cerebellum of Compound A, frontal cortex: 1.08
  Ratio tissue to cerebellum of Compound A, occipital cortex: 0.99
  Ratio tissue to cerebellum of Compound A, parietal cortex: 0.91
  Ratio tissue to cerebellum of Compound A, striatum: 1.22
  Ratio tissue to cerebellum of Compound A, thalamus: 0.72
Histamine H3 receptor [1]; escalating dose 0.006, 0.06, 0.6 and 2.0 mg/kg
  Effect on Compound A uptake in H3-rich brain regions: dose-dependent decrease

## [11CH3]NC(=O)c1ccc(Oc2ccc3c(c2)CCN(C2CCC2)CC3)nc1 [Compound A, [^11C-N-methyl]-6-(3-cyclobutyl-2,3,4,5-tetrahydro-1H-benzo[d]azepin-7-yloxy)-nicotamide]
Histamine H3 receptor [3]
  Concentration in cerebellum: low
Histamine H3 receptor [3]; 85 min, baseline
  Ratio relative to cerebellum, frontal cortex: 5.3
  Ratio relative to cerebellum, occipital cortex: 3.8
  Ratio relative to cerebellum, parietal cortex: 4.9
  Ratio relative to cerebellum, striatum: 9.0
  Ratio relative to cerebellum, thalamus: 3.4
Histamine H3 receptor [3]; after administration of the radiotracer
  Time of peak brain uptake of radioactivity: 25 min
Histamine H3 receptor [3]; higher accumulation in striatum, cortices, thalamus, hypothalamus
  Regional brain distribution: reflected the known distribution of the histamine H3 receptor
Histamine H3 receptor [3]; iv 1 minute bolus
  Brain entry: readily enters the pig brain
